# Patent US11377441B2, “Covalent inhibitors of KRAS” (Araxes Pharma LLC, priority 2017, dated 2022)
# Molecular target: T1, KRAS G12C 1-169, his-tagged protein, GDP-loaded (Homo sapiens, UniProt P01116, G12C)
# T1 construct: KRAS G12C 1-169, his-tagged protein, GDP-loaded
# Experiment: Biochemical assay: covalent modification of KRAS G12C measured by mass spectrometry (RapidFire/TOF or Q-Exactive)
# Assay type: binding
# Settings: covalent binding to (modification of) KRAS G12C after a ten minute incubation period
# How it was run: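 GDP-loaded KRAS G12C 1-169 (his-tagged) at 2 μM or 0.5 μM in 20 mM Hepes, 150 mM NaCl, 1 mM MgCl2, incubated with compound at 100, 30 or 10 μM at room temperature for 10 min, 30 min, 2 h or 24 h, then quenched with formic acid. Intact-protein LC-MS, deconvolved; percent modification from modified versus unmodified protein.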
row,Structure (SMILES),Binding %
1,"C=CC(=O)N1C[C@H](C)N(c2nc(N3CC(N)C3)nc3c(F)c(-c4c(C)ccc5[nH]nc(C6CC6)c45)c(Cl)cc23)C[C@H]1C [Compound 126, 1-((2R,5S)-4-(2-(3-aminoazetidin-1-yl)-6-chloro-7-(3-cyclopropyl-5-methyl-1H-indazol-4-yl)-8-fluoroquinazolin-4-yl)-2,5-dimethylpiperazin-1-yl)prop-2-en-1-one]",+++ (+++ indicates binding activity greater than 80%)
2,"C=CC(=O)N1C[C@H](C)N(c2nc(N3CC(N(C)C)C3)nc3c(F)c(-c4c(C)ccc5cnn(C(C)C)c45)c(Cl)cc23)C[C@H]1C [Compound 127, 1-((2R,5S)-4-(6-chloro-2-(3-(dimethylamino)azetidin-1-yl)-8-fluoro-7-(1-isopropyl-6-methyl-1H-indazol-7-yl)quinazolin-4-yl)-2,5-dimethylpiperazin-1-yl)prop-2-en-1-one]",++ (++ indicates binding activity from 50 to 80%)
3,"C=CC(=O)N1C[C@H](C)N(c2nc(N3CC(N(C)C)C3)nc3c(F)c(-c4c(C)ccc5cnn(C6CC6)c45)c(Cl)cc23)C[C@H]1C [Compound 128, 1-((2R,5S)-4-(6-chloro-7-(1-cyclopropyl-6-methyl-1H-indazol-7-yl)-2-(3-(dimethylamino)azetidin-1-yl)-8-fluoroquinazolin-4-yl)-2,5-dimethylpiperazin-1-yl)prop-2-en-1-one]",+++ (+++ indicates binding activity greater than 80%)
4,"C=CC(=O)N1C[C@H](C)N(c2nc(N3CC(NC)C3)nc3c(F)c(-c4c(C)ccc5[nH]nc(C6CC6)c45)c(Cl)cc23)C[C@H]1C [Compound 129, 1-((2R,5S)-4-(6-chloro-7-(3-cyclopropyl-5-methyl-1H-indazol-4-yl)-8-fluoro-2-(3-(methylamino)azetidin-1-yl)quinazolin-4-yl)-2,5-dimethylpiperazin-1-yl)prop-2-en-1-one]",+++ (+++ indicates binding activity greater than 80%)
5,"C=CC(=O)N1C[C@H](C)N(c2nc(N3CC(N(C)C)C3)nc3c(F)c(-c4cccc5occc45)c(Cl)cc23)C[C@H]1C [Compound 130, 1-((2R,5S)-4-(7-(benzofuran-4-yl)-6-chloro-2-(3-(dimethylamino)azetidin-1-yl)-8-fluoroquinazolin-4-yl)-2,5-dimethylpiperazin-1-yl)prop-2-en-1-one]",++ (++ indicates binding activity from 50 to 80%)
6,"C=CC(=O)N1C[C@H](C)N(c2nc(N3CC(N(C)C)C3)nc3c(F)c(-c4c(C)ccc5ncn(C)c45)c(Cl)cc23)C[C@H]1C [Compound 132, 1-((2R,5S)-4-(6-chloro-7-(1,6-dimethyl-1H-benzo[d]imidazol-7-yl)-2-(3-(dimethylamino)azetidin-1-yl)-8-fluoroquinazolin-4-yl)-2,5-dimethylpiperazin-1-yl)prop-2-en-1-one]",+ (+ indicates binding activity greater than 0% and up to 50%)
7,"C=CC(=O)N1C[C@H](C)N(c2nc(N3CC(N(C)C)C3)nc3c(F)c(-c4cccc5ccn(C)c45)c(Cl)cc23)C[C@H]1C [Compound 138, 1-((2R,5S)-4-(6-chloro-2-(3-(dimethylamino)azetidin-1-yl)-8-fluoro-7-(1-methyl-1H-indol-7-yl)quinazolin-4-yl)-2,5-dimethylpiperazin-1-yl)prop-2-en-1-one]",+++ (+++ indicates binding activity greater than 80%)
8,"C=CC(=O)N1C[C@H](C)N(c2nc(N3CC(NC)C3)nc3c(F)c(-c4c(C)ccc5[nH]nc(C)c45)c(Cl)cc23)C[C@H]1C [Compound 140, 1-((2R,5S)-4-(6-chloro-7-(3,5-dimethyl-1H-indazol-4-yl)-8-fluoro-2-(3-(methylamino)azetidin-1-yl)quinazolin-4-yl)-2,5-dimethylpiperazin-1-yl)prop-2-en-1-one]",+++ (+++ indicates binding activity greater than 80%)
9,"C=CC(=O)N1C[C@H](C)N(c2nc(N3CC(N(C)C)C3)nc3c(F)c(-c4c(F)ccc5cnn(C)c45)c(Cl)cc23)C[C@H]1C [Compound 145, 1-((2R,5S)-4-(6-chloro-2-(3-(dimethylamino)azetidin-1-yl)-8-fluoro-7-(6-fluoro-1-methyl-1H-indazol-7-yl)quinazolin-4-yl)-2,5-dimethylpiperazin-1-yl)prop-2-en-1-one]",+++ (+++ indicates binding activity greater than 80%)
10,"C=CC(=O)N1C[C@H](C)N(c2nc(N3CC(NC)C3)nc3c(F)c(-c4c(C)ccc5cnn(C6CC6)c45)c(Cl)cc23)C[C@H]1C [Compound 148, 1-((2R,5S)-4-(6-chloro-7-(1-cyclopropyl-6-methyl-1H-indazol-7-yl)-8-fluoro-2-(3-(methylamino)azetidin-1-yl)quinazolin-4-yl)-2,5-dimethylpiperazin-1-yl)prop-2-en-1-one]",+++ (+++ indicates binding activity greater than 80%)
11,"C=CC(=O)N1C[C@H](C)N(c2nc(N3CC(N(C)C)C3)nc3c(F)c(-c4cccc5snc(C)c45)c(Cl)cc23)C[C@H]1C [Compound 157, 1-((2R,5S)-4-(6-chloro-2-(3-(dimethylamino)azetidin-1-yl)-8-fluoro-7-(3-methylbenzo[d]isothia-zol-4-yl)quinazolin-4-yl)-2,5-dimethylpiperazin-1-yl)prop-2-en-1-one]",+++ (+++ indicates binding activity greater than 80%)
12,"C=CC(=O)N1C[C@H](C)N(c2nc(N3CC(N(C)C)C3)nc3c(F)c(-c4cccc5c(Cl)n[nH]c45)c(Cl)cc23)C[C@H]1C [Compound 158, 1-((2R,5S)-4-(6-chloro-7-(3-chloro-1H-indazol-7-yl)-2-(3-(dimethylamino)azetidin-1-yl)-8-fluoroquinazolin-4-yl)-2,5-dimethylpiperazin-1-yl)prop-2-en-1-one]",++ (++ indicates binding activity from 50 to 80%)
13,"C=CC(=O)N1C[C@H](C)N(c2nc(N3CC(N(C)C)C3)nc3c(F)c(-c4c(C(C)C)ccc5[nH]ncc45)c(Cl)cc23)C[C@H]1C [Compound 159, 1-((2R,5S)-4-(6-chloro-2-(3-(dimethylamino)azetidin-1-yl)-8-fluoro-7-(5-isopropyl-1H-indazol-4-yl)quinazolin-4-yl)-2,5-dimethylpiperazin-1-yl)prop-2-en-1-one]",+ (+ indicates binding activity greater than 0% and up to 50%)
14,"C=CC(=O)N1C[C@H](C)N(c2nc(OC[C@H]3CCCN3C)nc3c(F)c(-c4c(C)ccc5[nH]nc(C6CC6)c45)c(Cl)cc23)C[C@H]1C [Compound 160, 1-((2R,5S)-4-(6-chloro-7-(3-cyclopropyl-5-methyl-1H-indazol-4-yl)-8-fluoro-2-(((R)-1-methylpyrrolidin-2-yl)methoxy)quinazolin-4-yl)-2,5-dimethylpiperazin-1-yl)prop-2-en-1-one]",+++ (+++ indicates binding activity greater than 80%)
15,"C=CC(=O)N1C[C@H](C)N(c2nc(OC[C@H]3CCCN3C)nc3c(F)c(-c4c(C)ccc5[nH]nc(C)c45)c(Cl)cc23)C[C@H]1C [Compound 161, 1-((2R,5S)-4-(6-chloro-7-(3,5-dimethyl-1H-indazol-4-yl)-8-fluoro-2-(((R)-1-methylpyrrolidin-2-yl)methoxy)quinazolin-4-yl)-2,5-dimethylpiperazin-1-yl)prop-2-en-1-one]",+++ (+++ indicates binding activity greater than 80%)
16,"C=CC(=O)N1C[C@H](C)N(c2nc(OC[C@@H]3CCCN3C)nc3c(F)c(-c4c(C)ccc5[nH]nc(C)c45)c(Cl)cc23)C[C@H]1C [Compound 162, 1-((2R,5S)-4-(6-chloro-7-(3,5-dimethyl-1H-indazol-4-yl)-8-fluoro-2-(((S)-1-methylpyrrolidin-2-yl)methoxy)quinazolin-4-yl)-2,5-dimethylpiperazin-1-yl)prop-2-en-1-one]",+++ (+++ indicates binding activity greater than 80%)
17,"C=CC(=O)N1C[C@H](C)N(c2nc(OCCN3CCC(F)CC3)nc3c(F)c(-c4c(C)ccc5[nH]nc(C)c45)c(Cl)cc23)C[C@H]1C [Compound 163, 1-((2R,5S)-4-((S)-6-chloro-7-(3,5-dimethyl-1H-indazol-4-yl)-8-fluoro-2-(2-(4-fluoropiperidin-1-yl)ethoxy)quinazolin-4-yl)-2,5-dimethylpiperazin-1-yl)prop-2-en-1-one]",+ (+ indicates binding activity greater than 0% and up to 50%)
18,"C=CC(=O)N1C[C@H](C)N(c2nc(OCCN3CCC(F)CC3)nc3c(F)c(-c4c(C)ccc5[nH]nc(C)c45)c(Cl)cc23)C[C@H]1C [Compound 164, 1-((2R,5S)-4-((R)-6-chloro-7-(3,5-dimethyl-1H-indazol-4-yl)-8-fluoro-2-(2-(4-fluoropiperidin-1-yl)ethoxy)quinazolin-4-yl)-2,5-dimethylpiperazin-1-yl)prop-2-en-1-one]",+++ (+++ indicates binding activity greater than 80%)
19,"C=CC(=O)N1CCN(c2nc(N3CC(N(C)C)C3)nc3c(F)c(-c4c(C)ccc5[nH]nc(N)c45)c(Cl)cc23)C[C@H]1C [Compound 165, 1-((2R)-4-(7-(3-amino-5-methyl-1H-indazol-4-yl)-6-chloro-2-(3-(dimethylamino)azetidin-1-yl)-8-fluoroquinazolin-4-yl)-2-methylpiperazin-1-yl)prop-2-en-1-one]",+++ (+++ indicates binding activity greater than 80%)
20,"C=CC(=O)N1C[C@H](C)N(c2nc(N3CC(N(C)C)C3)nc3c(F)c(-c4c(C)ccc5cnn(C)c45)c(C(F)(F)F)cc23)C[C@H]1C [Compound 171, 1-((2R,5S)-4-(7-(1,6-dimethyl-1H-indazol-7-yl)-2-(3-(dimethylamino)azetidin-1-yl)-8-fluoro-6-(trifluoromethyl)quina-zolin-4-yl)-2,5-dimethylpiperazin-1-yl)prop-2-en-1-one]",+++ (+++ indicates binding activity greater than 80%)
